This assay concerns the target T1, galectin-3 (Homo sapiens, UniProt P17931).
T1 construct: gene LGALS3; recombinant human galectin-3, GST-purified with the GST tag removed
Kind of assay: intrinsic tryptophan fluorescence lifetime titration (direct waveform recording, excitation at […] nm), fit with n = […]. It counts as binding.

T1 sequence (P17931 2-250): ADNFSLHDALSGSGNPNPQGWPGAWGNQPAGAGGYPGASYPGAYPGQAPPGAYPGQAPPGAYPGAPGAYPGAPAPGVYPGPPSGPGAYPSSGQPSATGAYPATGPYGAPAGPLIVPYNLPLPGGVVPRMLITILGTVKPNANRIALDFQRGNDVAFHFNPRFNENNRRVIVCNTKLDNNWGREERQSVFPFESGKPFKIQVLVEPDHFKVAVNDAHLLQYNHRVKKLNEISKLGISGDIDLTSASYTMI

Regarding `COC1O[C@H](CO)[C@@H](O[C@@H]2O[C@H](CO)[C@H](O)[C@H](O)[C@H]2O)[C@H](O)[C@H]1O` (stereo partly shown) [methyllactose], the dissociation constant Kd is 54 ± 10 µM.

Usually Kd stands for a measure of binding affinity in units of concentration. Lower therefore signals higher affinity.

The values are drawn from PMC7675582, “Time-Dependent Fluorescence Spectroscopy to Quantify Complex Binding Interactions” (ACS Omega, 2020).
